Reference: patent US20060228752A1, “Genetic polymorphisms in the preprotachykinin gene” (priority 2002, published 2006)

Legend:
Type in all cases: in vivo, human
[1] = tested on: apomorphine-induced vomiting and retching; experiment: Emesis test (apomorphine challenge), Single Ascending Dose study (SAD)
Description: (§1) The described emesis test was performed in two studies. A Single Ascending Dose study (SAD) and a Multiple Ascending Dose study (MAD). In the SAD the emesis test was performed 6 and/or 24 hrs after intake of 2-(3,5-bis-trifluoromethyl-phenyl)-N-methyl-N-(6-morpholin-4-yl-4-o-tolyl-pyridin-3-yl)-isobutyramide. In the MAD the emesis test was performed after 14 once daily doses, 6 or 24 hrs after the last dose.
In the SAD on study day 1 doses of 5, 10, 20, 40, 80, 160, 230 and 400 mg 2-(3,5-bis-trifluoromethyl-phenyl)-N-methyl-N-(6-morpholin-4-yl-4-o-tolyl-pyridin-3-yl)-isobutyramide were administered to the subjects orally as a drinking emulsion. At either 6 or 24 hours after the administration of the drug the subjects received a subcutaneous injection of 50 μg/kg of apomorphine in the lower part of the abdomen. The time of apomorphine administration was recorded. The subjects were brought into an upright sitting position immediately after the injection. They remained in this position until vomiting occurred or for at least 1 hour after the apomorphine injection. Vomiting is defined as regurgitation of approximately 25 ml or more of gastric contents. A retch is defined as a regurgitation producing less or no gastric content.
Nausea and/or vomiting was expected to occur on average within 10 minutes after the injection. […] The number of vomits and retches were recorded. […]

[2] = tested on: apomorphine-induced vomiting and retching; experiment: Emesis test (apomorphine challenge), Multiple Ascending Dose study (MAD); conditions: 14 once daily doses, test on day 14, 6 or 24 hrs after last dose
Description: as §1, with “dose. Subjects were dosed for 14 days with 2-(3,5-bis-trifluoromethyl-phenyl)-N-methyl-N-(6-morpholin-4-yl-4-o-tolyl-pyridin-3-yl)-isobutyramide. On day 14 the test was carried out as described in the SAD.” for “dose.”

[3] = tested on: apomorphine-induced vomiting and retching; experiment: Emesis test response by NKNA position 41172 genotype (SAD and MAD participants); conditions: plasma concentration >20 ng/ml; responder = ≦3 retches and vomits
Description: FIG. 4: 2×2 Contingency table for 29 position 41172 genotype test results with concentration before emesis test >20 ng/ml 2-(3,5-bis-trifluoromethyl-phenyl)-N-methyl-N-(6-morpholin-4-yl-4-o-tolyl-pyridin-3-yl)-isobutyramide. Effect=yes: number of vomits+retches≦3. Fisher's Exact Test (two-sided): p=0.033. The genotypes of the subjects were classified according to the following categories: 0-2 are allele 2 (nucleotide G) homozygotes (two copies of allele 2, no copies of allele 1); not 0-2 include allelel (nucleotide A) homozygotes 2-0 (two copies of allele 1, no copies of allele 2) and heterozygotes 1-1 (one copy of allele 1 and one copy of allele 2).
Three genetic markers were selected based on the results from polymorphism discovery in the NKNA gene. Samples were genotyped for these single nucleotide polymorphisms by a kinetic PCR method described by Germer et al., Genome Res. (2000), 10, 258-266 with the modification of using single sample for each reaction instead of pooling samples. This method allows discrimination of single nucleotide polymorphisms without the use of fluorescent probes.
All participants of the SAD and MAD were tested for the single nucleotide polymorphism at position 41172 of the NKNA gene as defined by position in FIG. 2.

Structure (SMILES): Cc1ccccc1-c1cc(N2CCOCC2)ncc1N(C)C(=O)C(C)(C)c1cc(C(F)(F)F)cc(C(F)(F)F)c1 [2-(3,5-bis-trifluoromethyl-phenyl)-N-methyl-N-(6-morpholin-4-yl-4-o-tolyl-pyridin-3-yl)-isobutyramide]
- average number of retches and vomits at the plateau reached with the blockade ([1]; apomorphine 50 μg/kg s.c. 6 or 24 hrs after oral drug): 3
- plasma concentration at which efficacious levels are reached (minimal concentration to achieve efficacy) ([1]; oral drinking emulsion 5-400 mg, apomorphine 50 μg/kg s.c. 6 or 24 hrs after drug, efficacy = plateau of 3 retches and vomits): 20 ng/mL
- emesis test result in MAD [2]: consistent with the SAD
- response to treatment of subjects with G at position 41172 of the NKNA gene versus subjects without it or heterozygous [3]: responding with a higher efficacy
